Experimental data as given in patent US7049321B2, “Methods and pharmaceutical compositions for treatment of central and peripheral nervous system disorders and compounds useful therefor” (Israel Institute for Biological Research, priority 2002, dated 2006).

Legend:
[1] = tested on: Human α-glycoprotein (AGP); test: Protein binding, human α-glycoprotein; assay type: in vitro ADME; details: 10 μM
Description: (§1) Protein binding studies were carried out in human plasma, α1-glycoprotein, human serum albumin (HSA), and Dulbecco's Phosphate Buffered Saline (PBS). AF292 was added to a final concentration of 10 μM. […] (μM) and in human […] (AGP), (see Table 1).

[2] = Metabolic stability, rat liver microsomes; assay type: in vitro ADME; details: read-out: Metabolic Stability T1/2
Description: (§2) The metabolic stability of AF292 was evaluated by monitoring its disappearance while incubated with rat, […], monkey, and human hepatic microsomes. Testosterone, and propranolol were run as assay controls.

tau proteins = test: tau phosphorylation, AT8 immunoblot; assay type: cell-based; details: 100 μM; to the control level
From the text: Following the experimental design of Sadot et al., J. Neurochem. […] By linking an M1 agonist to an antioxidant moiety tau phophorylation may be decreased, providing a new therapeutic strategy in a variety of CNS disease states due to combined damage due to oxidative stress and tau hyperphosphorylation.

C57BL6J mice = test: Morris water maze in normal hippocampus mice; assay type: in vivo; details: for Training, escape latency: 0.5 and 1 mg/kg i.p. (rivastigmine, nicotine 1 mg/kg); for Training, path length: AF150(S) only the higher dose; for Reversal test, swimming speed: AF150(S)-0.5 mg/kg, AF267B-1 mg/kg, rivastigmine, nicotine
Description: (§3) Each group of mice was randomly divided into 7 treatment groups (n=12-14/group). […] All tested compounds and saline were administered once a day for 4 days before starting the behavioral testing, and then for the duration of the 5-day experiment, 30 minutes before testing.
(§4) Training: Each mouse was trained for four consecutive days, four trials (one block) per day, in which the platform position remained constant and was located in the center of the southeast quadrant of the pool. Within each block of four trials, each mouse started at each of the starting locations, but the sequence of locations was randomly selected. A trial consisted of placing a mouse by hand into the water facing the wall of the pool at one of four starting locations, north, south, east or west, around the pool's perimeter. Escape latency (the time to find the platform), path length (the distance traveled by the mouse) and speed (the swimming rate of the mouse) were recorded on each trial by the monitoring system.
(§5) For each mouse, the path length, escape latency, and swimming speed of the four trials on each of the 4 training days were grouped into blocks (one block for each day). […] Specific comparisons were performed, using the simple main effects contrasts acalysis, which is specifically suited for testing significant interactions.
(§6) Transfer test. During trial No. 17, on the fourth day, the platform was entirely removed from the pool (a probe trial). In this trial, the mouse was placed into the water for a limited period (30 s), and its spatial bias was measured by recording the relative distribution of escape latency and path length over the four quadrants of the pool.
(§7) Reversal test. During trials 18–21, on the fifth day, the platform position was changed to the northwest quadrant, opposite to the training quadrant. Thus, during reversal learning, the platform location was moved relative to the configuration of objects within the room, but the pool occupied the same place within the room throughout the entire experiment. Testing of the rats and measures taken were the same as in training.
(§8) For each mouse, the escape latency, path length and swimming speed of the reversal test (trials No. 18–21) were grouped into one block.

in vivo = details: mouse
Description: This calculation was based on the brain weight (2 gr) vs. total plasma volume (14 ml).

[3] = tested on: cortical and hippocampal cell culture; test: Protection against NMDA-induced cell death; assay type: cell-based, rat; details: for Neuroprotective potency against 200 μM of NMDA vs MK801: 100 μM agonist
[4] = tested on: cells transfected with M1 mAChR; test: Apoptosis (DAPI, TUNEL, FACS) after starvation, Aβ or H2O2; assay type: cell-based, rat; details: for Apoptosis after Aβ or H2O2 (DAPI): DAPI staining
[5] = tested on: cells transfected with M1 mAChR; test: as above; assay type: cell-based, rat; details: for Apoptotic cell death induced by starvation: 24 hrs starvation; for H2O2-induced apoptosis: H2O2 25 and 50 μm; for Aβ-induced apoptosis: β-A25-35 or β-A1-42 (25 μM), M1 transfected cells; for Apoptotic population after β-amyloid (FACS): β-Amyloid 25–35 or 1–42
Description: Several experiments were performed in serum-free medium.
Cells were grown and treated on glass coverslips.
Apoptotic cells were identified as the pre-G1 phase.

[6] = Metabolic stability, dog liver microsomes; assay type: in vitro ADME; details: read-out: Metabolic Stability T1/2
Description: as §2

rat M1 mAChR = target: T1, rat M1 mAChR (Rattus norvegicus, UniProt P08482); test: PI turnover, rat M1 mAChR; assay type: cell-based
T1 construct: expressed in transfected cells; host or cells: probably the rat pheochromocytoma cells transfected with M1 mAChR
T1 sequence (P08482 whole entry): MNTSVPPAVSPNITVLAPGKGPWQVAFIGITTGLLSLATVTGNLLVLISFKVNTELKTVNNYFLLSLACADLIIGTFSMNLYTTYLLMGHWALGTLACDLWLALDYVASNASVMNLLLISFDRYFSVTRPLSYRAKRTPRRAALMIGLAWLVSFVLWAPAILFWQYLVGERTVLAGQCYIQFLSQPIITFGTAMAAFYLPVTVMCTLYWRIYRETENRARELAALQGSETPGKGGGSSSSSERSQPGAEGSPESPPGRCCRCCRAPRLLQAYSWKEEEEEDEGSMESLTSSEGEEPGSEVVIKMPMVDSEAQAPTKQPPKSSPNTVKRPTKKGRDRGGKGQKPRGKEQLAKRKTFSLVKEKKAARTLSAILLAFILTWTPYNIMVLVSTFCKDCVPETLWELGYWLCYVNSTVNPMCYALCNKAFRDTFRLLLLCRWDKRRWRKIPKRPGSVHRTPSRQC

[7] = Protein binding, human plasma; assay type: in vitro ADME
Description: as §1

human M1 = target: T2, human M1 (Homo sapiens, UniProt P11229); test: PI hydrolysis in cells transfected with human M1; assay type: cell-based; set-up: expressed in transfected cells
T2 sequence (P11229 1-460): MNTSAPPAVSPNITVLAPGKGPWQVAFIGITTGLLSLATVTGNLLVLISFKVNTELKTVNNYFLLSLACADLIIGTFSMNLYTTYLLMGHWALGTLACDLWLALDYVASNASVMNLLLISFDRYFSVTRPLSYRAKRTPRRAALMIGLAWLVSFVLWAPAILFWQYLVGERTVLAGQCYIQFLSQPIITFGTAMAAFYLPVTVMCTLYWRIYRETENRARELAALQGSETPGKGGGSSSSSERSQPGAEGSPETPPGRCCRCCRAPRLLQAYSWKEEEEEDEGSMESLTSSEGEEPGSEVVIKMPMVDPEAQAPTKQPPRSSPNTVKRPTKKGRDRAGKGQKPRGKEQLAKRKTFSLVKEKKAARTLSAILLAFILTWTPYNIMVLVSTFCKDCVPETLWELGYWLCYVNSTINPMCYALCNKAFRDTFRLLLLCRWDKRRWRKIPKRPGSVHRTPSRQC

tau protein = test: tau-1 immunoreactivity in primary cell cultures (western blot); assay type: cell-based, rat; details: 1–100 μM, cortical and hippocampal cell cultures
Description: Primary cell cultures were grown as described in EXAMPLE 38. Cell supernatants were removed and the cells were washed once in medium prior to the addition of cold phosphate buffre saline ph=7.4 (PBS) solution containing 0.2 mM EDTA. Cells were scraped using a rubber policeman, transferred to Eppendorf tubes, and centrifuged at 4° C. Cell pellets were resuspended in lysis buffer (EDTA 5 mM, Tris 50 mM, Triton 1%, NaCl 150 mM) containing protease inhibitors (5 units/ml apronitin, […] and 0.1 mM PMSF, Sigma) and subjected to centrifugation at 4° C. Supernatants were transferred into Eppendorf tubes and kept at −20° C. till analyzed. The extent of tau-1 immunoreactivity (an antibody that recognizes a non-phosphorylated tau at Ser^199) was determined by western blots.

C57BL/10SnJ (B10) mice = test: Morris water maze in small hippocampus mice; assay type: in vivo; details: for Training, escape latency: 0.5 and 1 mg/kg i.p. (rivastigmine, nicotine 1 mg/kg); for Training, path length: AF150(S) both doses, AF267B the higher dose; for Reversal test, escape latency / Training, swimming speed / Transfer test, spatial bias: mouse, in vivo
Description: C57BL/10SnJ (B10) mice were selected due to their small hippocampi and decreased number of hippocampal pyramidal neurons; the cell loss seemed to be associated with poor spatial learning.
as §3, §4, §5, §6, §7, §8

Structure (SMILES) | Protein Binding [1] | half-life [2] | tau phosphorylation (AT8) (tau proteins) | Training, escape latency (C57BL6J mice) | Training, path length (C57BL6J mice) | Reversal test, swimming speed (C57BL6J mice) | Training, swimming speed (C57BL6J mice; mouse, in vivo) | Tmax (in vivo) | Prevention of NMDA-induced cell death [3] | Neuroprotective potency against 200 μM of NMDA vs MK801 [3] | Apoptosis after Aβ or H2O2 (DAPI) [4] | Apoptotic death during starvation (FACS) [5] | Apoptotic cell death induced by starvation [5] | H2O2-induced apoptosis [5] | Aβ-induced apoptosis [5] | Apoptotic population after β-amyloid (FACS) [5] | half-life [6] | PI turnover vs. CCh, rat M1 mAChR (rat M1 mAChR) | fraction unbound at 10 μM [7] | PI turnover vs. carbachol, M1 (human M1) | also measured
CC[C@@H]1SC2(CCN(C)CC2)NC1=O [AF267B, (S)-2-ethyl-8-methyl-1-thia-4,8-diaza-spiro[4.5]decan-3-one] | AGP = 5.7% | 1.47 h | induce dephosphorylation of tau proteins | did not significantly affect | neither AF267B nor rivastigmine had any effect | significantly decreased | no such effect | 0.333 to 0.5 h | effective in prevention of cell death | slightly less | protect these cells from apoptosis | protected cells from apoptotic death | significantly protect | prevented H2O2-induced apoptosis | prevented | reduced the apoptotic population significantly | > 1.67 h | PI, rat M1 mAChR: 75% | 0.75 | ~66% | MRT (in vivo): 2.13 h; tau-1 immunoreactivity (tau protein): effective in elevating tau immunoreactivity; Training, escape latency (C57BL/10SnJ (B10) mice): positively affected; Training, path length (C57BL/10SnJ (B10) mice): positively affected; Reversal test, escape latency (C57BL/10SnJ (B10) mice): improved the escape latency; Training, swimming speed (C57BL/10SnJ (B10) mice): enhanced the swimming speed in a dose dependent manner; Transfer test, spatial bias (C57BL/10SnJ (B10) mice): complete spatial bias
CC1=NCC2(CCN(C)CC2)S1 [AF150(S), 2,8-Dimethyl-1-thia-3,8-diaza-spiro[4.5]dec-2-ene] | – | – | – | increased the escape latencies | impaired the path length | significantly decreased | impaired the swimming speed | 0.0167 to 0.167 h | effective in prevention of cell death | slightly less | protect these cells from apoptosis | protected cells from apoptotic death | significantly protect | prevented H2O2-induced apoptosis | prevented | reduced the apoptotic population significantly | – | – | – | – | Reversal test, escape latency (C57BL6J mice; AF150(S) 0.5 mg/kg): impaired the escape latency; Transfer test, spatial bias (C57BL6J mice; mouse, in vivo): partial spatial bias; Apoptosis, TUNEL ([4]; 100 μM, 25 μM β-amyloid 25–35): able to block the apoptosis; tau-1 immunoreactivity (tau protein): effective in elevating tau immunoreactivity; Training, escape latency (C57BL/10SnJ (B10) mice): positively affected; Training, path length (C57BL/10SnJ (B10) mice): positively affected; Reversal test, escape latency (C57BL/10SnJ (B10) mice): improved the escape latency; Training, swimming speed (C57BL/10SnJ (B10) mice): enhancing effect of AF150(S) was equal in both doses; Transfer test, spatial bias (C57BL/10SnJ (B10) mice): complete spatial bias
CC[C@@H]1SC2(CCNCC2)NC1=O [AF292, (S)-2-Ethyl-1-thia-4,8-diaza-spiro[4.5]decan-3-one] | 0% | 1.53 h | induce dephosphorylation of tau proteins | – | – | – | – | – | – | – | – | – | – | – | – | – | > 1.67 h | PI, rat M1 mAChR; 50% | 0.65 | ~35% | –
